The record followed here is patent US5998406A, “Oxazolidinone derivatives and pharmaceutical compositions” (Pharmacia & Upjohn Company, priority 1998, dated 1999).

Assay type in all cases: cell-based
Assay [1] deals with S. aureus, culture 9213. Briefly: MIC, standard agar dilution, S. aureus culture 9213. The settings on record: Staphylococcus aureus, CULTURE9213, Mueller Hinton agar, overnight at 35 C, read-out: SAUR 9213 MIC. How it is done:
(§1) The in vitro MICs of test compounds are determined by a standard agar dilution method. A stock drug solution of each analog is prepared in the preferred solvent, usually DMSO:H2 O(1:3). Serial 2-fold dilutions of each sample are made using 1.0 ml aliquots of sterile distilled water. To each 1.0 ml aliquot of drug is added 9 ml of molten Mueller Hinton agar medium. The drug-supplemented agar is mixed, poured into 15×100 mm petri dishes, and allowed to solidify and dry prior to inoculation.
(§2) Vials of each of the test organisms are maintained frozen in the vapor phase of a liquid nitrogen freezer. Test cultures are grown overnight at 35 C. on the medium appropriate for the organism. Colonies are harvested with a sterile swab, and cell suspensions are prepared in Trypticase Soy broth (TSB) to equal the turbidity of a 0.5 McFarland standard. A 1:20 dilution of each suspension is made in TSB. The plates containing the drug supplemented agar are inoculated with a 0.001 ml drop of the cell suspension using a Steers replicator, yielding approximately 10^4 to 10^5 cells per spot. The plates are incubated overnight at 35 C.
(§3) Following incubation the Minimum Inhibitory Concentration (MIC μg/ml), the lowest concentration of drug that inhibits visible growth of the organism, is read and recorded.
^a) S. aureus, culture 9213
(In general: In agar dilution, organisms are placed on agar that contains the substance at set levels.)

The test system of assay [2] is S. epidermidis, culture 12084. Briefly: MIC, standard agar dilution, S. epidermidis culture 12084. The settings on record: Staphylococcus epidermidis, CULTURE12084, Mueller Hinton agar, overnight at 35 C, read-out: SEPI 12084 MIC. On the procedure:
as §1, §2, §3
^b) S. epidermidis, culture 12084

The subject of assay [3] is E. faecalis, culture 9217. Briefly: MIC, standard agar dilution, E. faecalis culture 9217. Conditions: Enterococcus faecalis, CULTURE9217, Mueller Hinton agar, overnight at 35 C, read-out: EFAE 9217 MIC. How it is done: as §1, §2, §3
^c) E. faecalis, culture 9217

The test system of assay [4] is S. pueumoniae, culture 9912. Briefly: MIC, standard agar dilution, S. pueumoniae culture 9912. The settings on record: Mueller Hinton agar, overnight at 35 C, read-out: SPNE 9912 MIC. How it is done: as §1, §2, §3
^d) S. pueumoniae, culture 9912

For assay [5], the system named is H. influenzae, culture 30063. Briefly: MIC, standard agar dilution, H. influenzae culture 30063. The settings on record: Haemophilus influenzae, CULTURE30063, Mueller Hinton agar, overnight at 35 C, read-out: HINF 30063 MIC. How it is done:
as §1, §2, §3
^e) H. influenzae, culture 30063

The test system of assay [6] is M. catarrhalis, culture 30610. The experiment in a line: MIC, standard agar dilution, M. catarrhalis culture 30610. The settings on record: Moraxella catarrhalis, CULTURE30610, Mueller Hinton agar, overnight at 35 C, read-out: MCAT 30610 MIC. On the procedure:
as §1, §2, §3
^f) M. catarrhalis, culture 30610

SMILES strings stand for the structures. Converted amounts (≈) assume the structure as drawn.

`CC(=S)NC[C@H]1CN(c2ccc(N3CCC(=O)N(C)CC3)c(F)c2)C(=O)O1` [Example 4, (S)-N-[[3-[3-fluoro-4-(1,2,3,4,6,7-hexahydro-4-methyl-5-oxo-1,4-diazepin-1-yl)phenyl]-2-oxo-5-oxazolidinyl]methyl]-thioacetamide]: the MIC in assay [1] was 1 µg/mL (≈ 2.54 µM); in assay [2], less than 0.5 µg/mL; in assay [3], 1 µg/mL (≈ 2.54 µM); in assay [4], less than 0.5 µg/mL; in assay [5], 8 µg/mL (≈ 20.3 µM); in assay [6] it was 2 µg/mL (≈ 5.07 µM).

As for `CC(=O)NC[C@H]1CN(c2ccc(N3CCC(=O)N(C)CC3)c(F)c2)C(=O)O1` [Example 3, (S)-N-[[3-[3-fluoro-4-(1,2,3,4,6,7-hexahydro-4-methyl-5-oxo-1,4-diazepin-1-yl)phenyl]-2-oxo-5-oxazolidinyl]methyl]-acetamide], the MIC in assay [1] is 4 µg/mL (≈ 10.6 µM); in assay [2], 1 µg/mL (≈ 2.64 µM); in assay [3], 4 µg/mL (≈ 10.6 µM); in assay [4], 1 µg/mL (≈ 2.64 µM); in assay [5], 32 µg/mL (≈ 84.6 µM); in assay [6], 8 µg/mL (≈ 21.1 µM).

As to `CC(=O)NC[C@H]1CN(c2ccc(N3CCNC(=O)CC3)c(F)c2)C(=O)O1` [Example 1, (S)-N-[[3-[3-fluoro-4-(1,2,3,4,6,7-hexahydro-5-oxo-1,4-diazepin-1-yl)phenyl]-2-oxo-5-oxazolidinyl]methyl]acetamide], the MIC in assay [1] is 4 µg/mL (≈ 11 µM); in assay [2], 1 µg/mL (≈ 2.74 µM); in assay [3], 4 µg/mL (≈ 11 µM); in assay [4], 0.5 µg/mL (≈ 1.37 µM); in assay [5], 8 µg/mL (≈ 22 µM); in assay [6], 8 µg/mL (≈ 22 µM).
